# Test results published in patent US20140377403A1, “METHOD FOR EVALUATING FLAVOR-IMPROVING AGENT” (T. HASEGAWA CO., LTD., priority 2011, published 2014).
# How the values were obtained:
# subjects = test: Sensory evaluation of strength of taste of sample solutions by subjects; format: in vivo, human; details: for strength of sensory sweetness: subjects who showed a change in salivary gland response in Example 2
# Description: Each subject is held in a resting state, keeps water in the mouth such that the water spreads throughout the mouth for 30 seconds, then swallows the water, and then is held in a resting state for 60 seconds. Subsequently, the subject keeps a sample in the mouth to carefully taste the sample in the mouth for 30 seconds, then swallows the sample, and then is held in a resting state for 60 seconds again. Subsequently, the subject keeps water in the mouth again such that the water spreads throughout the mouth for 30 seconds, then swallows the water, and then is held in a resting state for 60 seconds. Subsequently, the subject keeps another sample in the mouth to carefully taste the sample in the mouth for 30 seconds, then swallows the sample, and then is held in a resting state for 60 seconds again. Thus, drinking of water and drinking of a sample are alternately repeated (FIG. 2). A sample can be evaluated at about four or five different concentrations in each experiment. […] Samples at previously selected four or five different concentrations are sequentially evaluated by the above-described procedure. During the evaluation of the sample, including the times of drinking and resting, the blood flow is measured, and the change therein is recorded. In addition, sensory evaluation is performed during the tasting of the sample in the mouth for 30 seconds. After completion of the evaluation at a series of four or five concentrations, the strength of flavor of the sample is concluded lastly to fill the sensory evaluation sheet (FIG. 3).
# The sensory evaluation was performed in accordance with the evaluation questionnaire shown in FIG. 3 for the strength of taste as 0: tasteless, 3: weak, 6: moderate, 9: strong, and 12: very strong.
# The samples of four different concentrations were subjected to sensory evaluation from a lower concentration of ethylmaltol to a higher concentration sequentially in accordance with the time schedule shown in FIG. 2 as in Example 1.
# salivary gland = test: Salivary gland response: change in blood flow (signal strength) at a periphery of the temple of the forehead, measured with an optical topography system; format: in vivo, human
# Description: Each subject is held in a resting state, keeps water in the mouth such that the water spreads throughout the mouth for 30 seconds, then swallows the water, and then is held in a resting state for 60 seconds. Subsequently, the subject keeps a sample in the mouth to carefully taste the sample in the mouth for 30 seconds, then swallows the sample, and then is held in a resting state for 60 seconds again. Subsequently, the subject keeps water in the mouth again such that the water spreads throughout the mouth for 30 seconds, then swallows the water, and then is held in a resting state for 60 seconds. Subsequently, the subject keeps another sample in the mouth to carefully taste the sample in the mouth for 30 seconds, then swallows the sample, and then is held in a resting state for 60 seconds again. Thus, drinking of water and drinking of a sample are alternately repeated (FIG. 2). A sample can be evaluated at about four or five different concentrations in each experiment. […] Samples at previously selected four or five different concentrations are sequentially evaluated by the above-described procedure. During the evaluation of the sample, including the times of drinking and resting, the blood flow is measured, and the change therein is recorded. In addition, sensory evaluation is performed during the tasting of the sample in the mouth for 30 seconds. After completion of the evaluation at a series of four or five concentrations, the strength of flavor of the sample is concluded lastly to fill the sensory evaluation sheet (FIG. 3). When a sample is drunk in accordance with the above-described procedure, the blood flow at a periphery of the temple of the forehead gradually increases after putting the sample into the mouth, and the signal strength reaches the maximum within about 5 to 30 seconds. Subsequently, the signal strength gradually decreases and reaches the original level within about 60 seconds after putting the sample into the mouth. Accordingly, a value obtained by subtracting the “minimum” blood flow within about 15 seconds after the moment of putting a sample into the mouth from the “maximum” blood flow during from about 5 to 30 seconds after putting the sample into the mouth at a specific site, i.e., the response strength of a change in blood flow, is defined as a change in signal strength at the periphery of the temple of the forehead. […] A probe (FIG. 1) having a large number of sensors connected to an optical topography system body was set to the head of each subject, and then each sample was given to the subjects sequentially, followed by measurement. In accordance with the time schedule shown in FIG. 2, after resting, water was first given, and then a sample was given to aggressively evaluate the flavor. The order of drinking aqueous solutions of one kind of a taste substance given to the subjects was from a lower concentration to a higher concentration sequentially. (1) FIG. 4 is a graph illustrating the amount of typical change in oxygenated hemoglobin with time when water was put in the mouth and drunk and then a sample was put in the mouth and drunk, measured with an optical topography system at a periphery of the temple of the forehead (channel 52). […] The response strength was determined by that “when the time at which a sample was drunk is defined as a time of 0 second, (the maximum blood flow within 5 to 30 seconds)−(the minimum blood flow within 0 to 15 seconds)”.
# [1] = 0, 1, 5, 10 ppm added to 4% aqueous sugar solution
smiles,measurement,setting,value
OCCc1ccccc1 [2-phenylethyl alcohol],strength of sensory sweetness,subjects; [1],No increase
"CCc1occc(=O)c1O [ethylmaltol, reference compound]",strength of sensual sweetness,"subjects; 0, 1, 5, 10 ppm added to 4% aqueous sugar solution, eight arbitrarily selected subjects",increased with the amount of ethylmaltol
same,signal strength compared with 4% aqueous sugar solution alone,"salivary gland; 0, 1, 5, 10 ppm added to 4% aqueous sugar solution, eight arbitrarily selected subjects, FIGS. 6 and 7",An enhancement in signal strength by addition of ethylmaltol was confirmed in six subjects
CC(C)=CCCC(C)=CC=O [citral],strength of sensory acidity,"subjects; 0, 1, 5, 10 ppm added to 0.1% aqueous citric acid solution, subjects showing a change in salivary gland response to a known flavor-improving agent",increased with the concentration
same,strength of sensory sweetness,subjects; [1],No increase
same,response measured at the periphery of the temple of the forehead compared with 0.1% aqueous citric acid solution alone,"salivary gland; 0, 1, 5, 10 ppm added to 0.1% aqueous citric acid solution, subjects showing a change in salivary gland response to a known flavor-improving agent, FIG. 10",enhanced
COc1ccc(C=CC=O)cc1 [p-methoxycinnamaldehyde],strength of sensory sweetness,subjects; [1],increased with the concentration
same,response measured at the periphery of the temple of the forehead compared with 4% aqueous sugar solution alone,"salivary gland; 0, 1, 5, 10 ppm added to 4% aqueous sugar solution, subjects who showed a change in salivary gland response in Example 2, FIGS. 8 and 9",enhanced
OC[C@H]1O[C@@](CO)(O[C@H]2O[C@H](CO)[C@@H](O)[C@H](O)[C@H]2O)[C@@H](O)[C@@H]1O [sugar],"response strength measured at a periphery of the temple of the forehead, compared with water","salivary gland; aqueous sugar solution 0 to 8%, eight arbitrarily selected subjects",larger than that to water in all subjects
same,dependence of response strength on sample concentration and sweetness strength,"salivary gland; sugar concentration range 0 to 8%, eight subjects",an enhancement of the response strength depending on the sample concentration and the sweetness strength was observed
